Assay results published in patent US20250099420A1, “SMALL MOLECULE MODULATORS OF GPR139 COMPLEX” (University of Florida Research Foundation, Incorporated, priority 2022, published 2025).
Like-named read-outs stand apart in the source and are kept apart here.

How the values were obtained:
GPR139 = target: T1, GPR139 (Homo sapiens, UniProt Q6DWJ6); experiment: GPR139 Agonist titration / agonist counterscreen assay (calcium detection, HEK-GPR139 cells); assay type: cell-based; parameters: expressed in transfected cells; host or cells: HEK Aequorin cells, Maxcyte transient transfection; details: GPR139 Agonist Activity; for Averaged Max % Response (±St. Dev.): activity relative to known control; for EC50: read-out: EC50
T1 sequence (Q6DWJ6 1-353): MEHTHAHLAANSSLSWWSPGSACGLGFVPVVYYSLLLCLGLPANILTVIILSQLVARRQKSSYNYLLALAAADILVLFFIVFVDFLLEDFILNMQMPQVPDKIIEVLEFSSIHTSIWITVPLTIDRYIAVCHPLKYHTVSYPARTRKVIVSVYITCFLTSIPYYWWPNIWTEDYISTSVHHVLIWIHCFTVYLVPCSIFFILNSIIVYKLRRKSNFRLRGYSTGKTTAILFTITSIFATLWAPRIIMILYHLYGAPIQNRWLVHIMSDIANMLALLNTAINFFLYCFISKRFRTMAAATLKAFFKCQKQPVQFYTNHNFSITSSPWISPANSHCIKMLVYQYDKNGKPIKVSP
Experimental: GPR activity was assessed using a calcium detection assay. […] Negative control samples were treated with DMSO. […] Intracellular calcium was measured using Calcium 5.

parental HEK cells = experiment: HEK parental Agonist Counterscreen Assay (non-transfected cells); assay type: cell-based; details: for Averaged Max % Response (±St. Dev.): activity relative to known control
From the text: The high control for the agonist counterscreen was Forskolin not acetylcholine.

[1] = values printed in E-notation without unit
[2] = Homo sapiens, HEK293, HEK Agonist Activity, parental non-transfected HEK cells
[3] = HEK Agonist Activity section of Table 4 (parental HEK counterscreen)
[4] = Homo sapiens, HEK293, HEK Agonist Activity section of Table 4 (parental HEK counterscreen)

| SMILES | Averaged Max % Response (±St. Dev.) (GPR139) [%] | Lipophilic Efficiency (logD) (GPR139; based on logD) | Lipophilic Efficiency (logP) (GPR139; based on logP) | Hill Slope (GPR139; fitted dose-response curve) | Efficiency Ligand (GPR139; ligand efficiency) | EC50 (GPR139; [1]) [nM] | Lipophilic Efficiency (logD) (parental HEK cells; HEK Agonist Activity) | Lipophilic Efficiency (logP) (parental HEK cells; HEK Agonist Activity) | Averaged Max % Response (±St. Dev.) (parental HEK cells; HEK Agonist Activity) [%] | EC50 (parental HEK cells; [2]) [µM] | Efficiency Ligand (GPR139) | Hill Slope (GPR139) | Lipophilic Efficiency (logD) (GPR139) | Lipophilic Efficiency (logP) (GPR139) | EC50 (GPR139; HEK-GPR139 cells) [nM] | Lipophilic Efficiency (logD) (parental HEK cells; HEK Agonist Activity section) | Lipophilic Efficiency (logP) (parental HEK cells; HEK Agonist Activity section) | EC50 (parental HEK cells; [3]) [µM] | Averaged Max % Response (±St. Dev.) (parental HEK cells; HEK Agonist Activity section) [%] | EC50 (parental HEK cells; [4]) [µM] |
| --- | --- | --- | --- | --- | --- | --- | --- | --- | --- | --- | --- | --- | --- | --- | --- | --- | --- | --- | --- | --- |
| O=C(COc1ccccc1Cl)NNC(=O)CSc1ccc2ccccc2c1 [SR-01000071098] | 108.04 ± 6.43 | 4.08 | 4.08 | 0.77 | 0.39 | 27.4 | 1.38 | 1.37 | 24.54 ± 7.58 | > 14.1 | – | – | – | – | – | – | – | – | – | – |
| Cc1cccc(Cc2cnc(NC(=O)CC(C)C)s2)c1 [SR-01000071221] | 129.99 ± 9.49 | 2.68 | 2.68 | 1.13 | 0.52 | 39.6 | 0.08 | 0.08 | 19.19 ± 7.12 | > 15.6 | – | – | – | – | – | – | – | – | – | – |
| CCCCn1c(C)c(N(CC)C(=O)C(C)(C)Oc2ccc(C)cc2)c(=O)[nH]c1=O [SR-01000071222] | 126.32 ± 18.07 | 5.83 | 5.82 | – | 0.42 | – | 2.01 | 2.01 | 4.62 ± 5.04 | > 14.7 | – | – | – | – | – | – | – | – | – | – |
| CCOc1ccccc1NC(=O)CN1C(=O)NC(C)(c2ccc(Cl)cc2Cl)C1=O (stereo not shown) [SR-01000072797] | 94.94 ± 8.96 | – | – | – | – | – | – | – | – | – | 0.29 | 0.87 | 2.52 | 2.52 | 1000 | 1.39 | 1.39 | > 14.2 | 4.41 ± 6.50 | – |
| Cc1ccc(C)c(C(=O)CCC(=O)NNC(=O)CSc2nc3ccccc3o2)c1 [SR-01000073202] | 119.67 ± 15.04 | 4.38 | 4.38 | – | 0.39 | > 6.6 | 1.04 | 1.04 | 12.21 ± 5.38 | > 14.5 | – | – | – | – | – | – | – | – | – | – |
| Nc1c(Cl)c(Cl)nc(C(=O)OCC(=O)NCc2ccccc2)c1Cl [SR-01000073564] | 129.62 ± 8.33 | 4.46 | 4.46 | 0.59 | 0.42 | 58.6 | – | – | – | – | – | – | – | – | – | 2.07 | 2.07 | – | 8.96 ± 14.03 | > 14.5 |
| CC1(c2ccc3c(c2)OCO3)NC(=O)N(CC(=O)Nc2ccccc2[N+](=O)[O-])C1=O (stereo not shown) [SR-01000074154] | 109.38 ± 5.55 | 5.22 | 5.22 | 0.54 | 0.32 | 147 | – | – | – | – | – | – | – | – | – | 3.21 | 3.20 | > 15 | 11.86 ± 8.71 | – |
| CC(C)(C)OC(=O)NNC(=O)COCc1ccc(Cl)c(Cl)c1 [SR-01000074687] | 90.02 ± 17.44 | 3.63 | 3.62 | 0.77 | 0.45 | 77.1 | – | – | – | – | – | – | – | – | – | 1.33 | 1.32 | – | 17.98 ± 4.87 | > 15.4 |
| CC(NC(=O)CN1C(=O)c2cccc([N+](=O)[O-])c2C1=O)c1ccc(Cl)cc1Cl (stereo not shown) [SR-01000074712] | 109.67 ± 8.84 | 4.91 | 4.91 | 0.80 | 0.40 | 9.7 | 1.73 | 1.73 | 30.27 ± 2.23 | > 14.7 | – | – | – | – | – | – | – | – | – | – |
| CC1(c2ccc3c(c2)OCCO3)NC(=O)C(CC(=O)NCC2CCCCC2)C1=O (stereo not shown) [SR-01000074761] | 95.96 ± 3.33 | 5.32 | 5.32 | 0.92 | 0.34 | 103 | – | – | – | – | – | – | – | – | – | 3.15 | 3.15 | – | 13.40 ± 6.99 | > 15.4 |
| COc1ccc2c(CC(=O)NNC(=O)c3cc(-c4ccccc4)no3)coc2c1 [SR-01000074979] | 79.45 ± 3.43 | – | – | – | – | – | – | – | – | – | 0.31 | 0.80 | 4.03 | 4.03 | 441 | 2.52 | 2.51 | – | −0.33 ± 8.51 | > 14.4 |
| O=C(CN1C(=O)NC2(CCCc3ccccc32)C1=O)N1CCCCCC1 (stereo not shown) [SR-01000075116] | 81.52 ± 3.66 | 4.72 | 4.72 | 0.99 | 0.37 | 142 | – | – | – | – | – | – | – | – | – | 2.72 | 2.72 | > 14.3 | 4.31 ± 1.95 | – |
| O=C(CCc1nc2cccnc2n1Cc1cccs1)NCCc1cccs1 [SR-01000077903] | 105.59 ± 5.95 | 3.66 | 3.66 | 0.45 | 0.37 | 60.2 | – | – | – | – | – | – | – | – | – | 1.29 | 1.29 | – | 1.27 ± 2.74 | > 14.1 |
| O=C(CCc1nc2cccnc2n1Cc1cccs1)NCCc1ccccc1 [SR-01000077904] | 79.43 ± 7.55 | 4.54 | 4.54 | – | 0.41 | – | 1.20 | 1.20 | −12.58 ± 9.87 | > 14.1 | – | – | – | – | – | – | – | – | – | – |
| CCCn1c(CCC(=O)NCCc2ccc(OCC)cc2)nc2cccnc21 [SR-01000077930] | 102.55 ± 5.37 | 4.55 | 4.55 | 0.67 | 0.38 | 22.8 | 1.76 | 1.76 | 1.00 ± 2.79 | > 14.1 | – | – | – | – | – | – | – | – | – | – |
